The values that follow are results of earlier work, collected in patent US20210113461A1, “Methods of Treating Fungal Infections” (CIPLA TECHNOLOGIES LLC, priority 2018, published 2021).

Read-outs that look alike come from different tables or passages of the source.

The conditions of data set [1]: oral solution.

In the case of `CCC(C)n1ncn(-c2ccc(N3CCN(c4ccc(OCC5COC(Cn6cncn6)(c6ccc(Cl)cc6Cl)O5)cc4)CC3)cc2)c1=O` (centres unmarked) [Itraconazole, itraconazole], in data set [1], the half-life (in general, the time in which the quantity being followed falls by half) at steady state is 39.7 ± 13 h and the “steady-state AUC0-24h under fasted conditions as % of exposure under fed conditions” value was 131±30%. In addition, in data set [1] (200 mg daily dose, fasted), the “mean AUC0-24h at steady-state” value was 29,271±10,285 ng·h/mL, the “mean Cmax at steady-state” value is reported as 1,963±601 ng/mL and the “mean tmax at steady-state” value was 2.5 ± 0.8 h. Moreover, the “increase of bioavailability under fasted conditions” value in data set [1] (healthy volunteers) is given as 30%. Further, the “bound by plasma protein” value with plasma protein (capsules) is on record as 99.6%. Further, the “bound by plasma protein” value in the data set on plasma protein (oral solution) is recorded as 99.8%.
